Reference: patent US20130203649A1, “INHIBITORS OF TLR SIGNALING BY TARGETING TIR DOMAIN INTERFACES” (UNIVERSITY OF MARYLAND, BALTIMORE, priority 2012, published 2013)
Residues, ends and D or L forms follow the SMILES beside them. No end group written: not given here.

How the values were obtained:
Format in all cases: cell-based
[1] = molecular target: T1, TLR2 (Mus musculus, UniProt Q9QUN7); assay: Inhibition of TLR2 signaling in thioglycollate-elicited mouse macrophages (effective concentration, TLR2 agonists P3C/P2C); details: for Effective conc.: TLR2 pathway, thioglycollate-elicited mouse macrophages; for IL-1β expression induced by TLR2 agonists: P2C and P3C (FIG. 16A, B)
T1 construct: Primary peritoneal macrophages were obtained by peritoneal lavage; endogenous in cells; host or cells: thioglycollate-elicited mouse peritoneal macrophages
T1 sequence (Q9QUN7 25-784): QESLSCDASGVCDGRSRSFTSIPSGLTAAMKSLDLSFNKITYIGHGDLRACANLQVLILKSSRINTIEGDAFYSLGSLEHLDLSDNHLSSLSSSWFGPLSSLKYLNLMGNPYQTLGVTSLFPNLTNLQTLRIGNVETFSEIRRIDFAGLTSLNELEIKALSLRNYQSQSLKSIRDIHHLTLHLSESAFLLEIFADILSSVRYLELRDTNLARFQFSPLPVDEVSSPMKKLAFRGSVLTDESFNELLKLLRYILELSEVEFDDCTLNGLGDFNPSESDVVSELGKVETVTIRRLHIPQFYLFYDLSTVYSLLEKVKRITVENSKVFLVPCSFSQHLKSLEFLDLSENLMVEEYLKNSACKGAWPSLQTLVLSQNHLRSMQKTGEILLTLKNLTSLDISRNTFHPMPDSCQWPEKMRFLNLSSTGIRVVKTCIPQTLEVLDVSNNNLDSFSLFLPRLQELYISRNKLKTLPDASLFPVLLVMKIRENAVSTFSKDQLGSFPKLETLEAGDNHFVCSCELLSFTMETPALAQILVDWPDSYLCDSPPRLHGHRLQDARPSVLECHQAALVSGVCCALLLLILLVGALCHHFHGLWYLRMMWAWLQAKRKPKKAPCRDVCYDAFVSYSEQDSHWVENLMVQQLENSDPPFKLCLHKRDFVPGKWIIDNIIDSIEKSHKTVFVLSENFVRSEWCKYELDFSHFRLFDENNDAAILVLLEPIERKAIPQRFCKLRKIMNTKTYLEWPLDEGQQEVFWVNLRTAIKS
Method: (§1) C57BL/6J mice were obtained from The Jackson Laboratory (Bar Harbor, Me.). Primary peritoneal macrophages were obtained by peritoneal lavage 4 days after intraperitoneal injection (3 ml) of sterile 3% thioglycolate broth. Washed cells were resuspended in RPMI 1640 which contained 2% FBS, 1% penicillin:streptomycin and 2 mM L-glutamine. After plating, cells were incubated overnight at 37° C. and then washed with PBS to remove non-adherent cells. Cells were exposed to peptides 30 min before stimulation with a TLR agonist.
(§2) Protein-free Escherichia coli K235 LPS was used at final concentration of 10 ng/ml to stimulate cells. S-[2,3-bis(palmitoyloxy)-(2-RS)-propyl]-N-palmitoyl-(R)-Cys-Ser-Lys4-OH (P3C) and S-[2,3-bis(palmitoyloxy)-(2-RS)-propyl]-[R]-Cys-Ser-Lys4-OH (P2C) were purchased from EMC microcollections GmbH (Tubingen, Germany) and used for cell stimulation at 500 and 50 ng/ml, respectively. Phospho-ERK1/2 and phospho-JNK1/2 rabbit Abs were obtained from Cell Signaling Technology, Inc. β-actin rabbit Ab were from SantaCruz Biotechnology, Inc.
(§3) Because of the role TRAP plays in TLR2 signaling, TIRAP TIR-derived decoy peptide effects on TLR2-induced cytokine mRNA expression were examined. Thioglycollate-elicited mouse macrophages were stimulated either by P2C, an agonist that induces signaling through TLR2/TLR6 heterodimerization, or P3C, a TLR2/TLR1 agonist, and effects of TIRAP TR-derived decoy peptides on induction of cytokine mRNA were examined. […] To confirm the inhibitory effect of TR3 and TR6 on P3C-induced signaling, IL-6 and TNF-α concentration was measured in macrophage supernatants collected 5 h after stimulation of cells with P3C. […] Concordantly, both TR3 and TR6 diminished the P3C-induced ERK phosphorylation (FIG. 3D).
(§4) C57BL/6J mice were obtained from The Jackson Laboratory (BarHarbor, Me.). Harvesting, culturing, and stimulation of peritoneal macrophages were described in previous publications (1, 18, 19). Escherichia coli K235 LPS (34) was used at the final concentration of 100 ng/ml. The 2,3-bis(palmitoyloxy)-(2-RS)-propyl-N-palmitoyl-(R)-Cys-Ser-Lys4-OH (P3C) and S[2,3-bis(palmitoyloxy)-(2-RS)-propyl]-[R]-Cys-Ser-Lys4-OH (P2C) (EMC Microcollections, Tubingen, Germany) were used at 500 and 50 ng/ml, respectively. Oligonucleotide (ODN) 1668 and low m.w. polyinosinic-polycytidylic acid [poly(I:C)] in complex with LyoVec were obtained from InvivoGen; these agonists were used at 2.5 μM and 400 ng/ml, respectively.

[2] = molecular target: T2, TLR2/TLR1 heterodimer (Mus musculus, UniProt Q9QUN7); assay: P3C-induced cytokine mRNA expression in mouse macrophages; details: peptide 30 min; P3C 500 ng/ml 1 hour (FIG. 15A)
T2 construct: endogenous in cells; host or cells: thioglycollate-elicited mouse peritoneal macrophages
T2 sequence (Q9QUN7 25-784, one chain of several): as the sequence (Q9QUN7 25-784) above
Source text: (§5) Total cellular RNA was isolated using Tripure from Roche (San Francisco, Calif.) following manufacture's protocol. RNA was then reverse transcribed using AMV Reverse Transcriptase from Promega (Madison, Wis.) with poly-T priming as per manufacturer's directions. cDNA was then quantified by real-time PCR using Applied Biosystems Fast SYBR Green PCR Master Mix and an ABI Prism 7500HT cycler. Primers used for detection: hypoxanthine phosphoribosyltransferase (HPRT) (forward: […] (SEQ ID NO:51), reverse: […] (SEQ ID NO:52)), TNFα (forward: […] (SEQ ID NO:53), reverse: […] (SEQ ID NO:54)), IL-1β (forward: […] (SEQ ID NO:55), reverse: […] (SEQ ID NO:56)), IFNβ (forward: […] (SEQ ID NO:57), reverse: CTCGGACCACCATCCAGG (SEQ ID NO:58)) and RANTES (forward: […] (SEQ ID NO:59), reverse: […] (SEQ ID NO:60)). The primers were designed using Primer Express 2.0 (Applied Biosystems). Using HPRT as reference, the ΔCt method was used to calculate relative gene expression. One-way ANOVA was preformed, as well as Dunnett's multiple comparison post hoc test with a p≦0.01 selected as the level of significance.
as §2, §3, §4

[3] = molecular target: T3, TLR2/TLR6 heterodimer (Mus musculus, UniProt Q9QUN7); assay: P2C-induced cytokine mRNA expression in mouse macrophages; details: peptide 30 min; P2C 50 ng/ml 1 hour (FIG. 15B)
T3 construct: endogenous in cells; host or cells: thioglycollate-elicited mouse peritoneal macrophages
T3 sequence (Q9QUN7 25-784, one chain of several): as the sequence (Q9QUN7 25-784) above
Source text: as §5, §2, §3, §4

[4] = system: TLR4; assay: Inhibition of TLR4 signaling in thioglycollate-elicited mouse macrophages (effective concentration, overall inhibitory activity); details: TLR4 pathway; thioglycollate-elicited mouse macrophages
Method: as §1
TIRAP/Mal functions to facilitate MyD88 recruitment to the activated TLR4 and TLR2, presumably through a simultaneous interaction with receptor and MyD88 TIR domains. Therefore, multiple TIR:TIR interaction sites are expected in TIRAP TIR. The decoy peptide approach was used to obtain leads on the functional protein-protein interfaces within TIRAP/Mal, a TLR adapter protein. To this end, eleven TIRAP TIR-derived decoy peptides were designed to be structurally homologous to the TLR4 TIR-derived decoy peptides used previously (1), so that each peptide represents a non-fragmented patch of the TIRAP TIR surface, with the entire domain encompassed by the set of peptides. The TIRAP TIR-derived decoy peptides were synthesized in tandem with the cell-permeating sequence of Antennapedia homeodomain (21) and each peptide was tested for the ability to inhibit TLR4 and TLR2 signaling in primary mouse macrophages. Peptide sequences and the structural regions they represent are shown in reference (30).
as §4

[5] = system: TLR4; assay: LPS-induced cytokine mRNA expression in mouse macrophages (real-time RT-PCR); details: for LPS-induced cytokine mRNA induction: peritoneal macrophages (FIG. 14A); for LPS-induced TNF-α and IL-1β mRNA expression: 20 μM peptide 30 min, LPS 1 hour (FIG. 13A)
Method: as §1, §5
Total RNA was isolated with Nucleospin RNA II kits (Macherey-Nagel, Bethlehem, Pa.), followed by DNase digestion. cDNA was synthesized from 1 μg RNA using Goscript transcriptase (Promega), and subjected to real-time PCR with gene-specific primers for HPRT, TNF-α, IL-1β, IFNβ, and RANTES on H7900 ABI system using Fast SYBR Green master mix (Applied Biosystems, Foster City, Calif.).
To evaluate peptide-inhibitory activities, we first measured LPS-induced cytokine mRNA expression. […] […] Decoy peptide TM4 is derived from the BB loop of TRAM TIR; we previously identified this peptide as an effective TLR4 inhibitor (19).

[6] = system: TLR4; assay: LPS-induced MAPK (ERK, JNK, p38) activation in mouse macrophages (Western analysis); details: for LPS-induced activation of ERK and JNK MAPKs: peritoneal macrophages (FIG. 14B); for LPS-induced activation of p38 and ERK MAPKs: 20 μM peptide, LPS 30 min
Method: Cellular protein extracts were isolated by addition of 240 μL per well cold lysate buffer (20 mM Tris, 50 mM NaCl, 1.5 mM MgCl2, 2 mM EDTA, 10 mM NaF, 2 Mm DTT, 1 mM Na3VO4, 1% Triton). Cells were incubated with lysis solution for 30 min on agitator at 4° C. Lysate was then collected and centrifuged at 14,000 g for 10 minutes at 4° C. After quantification using BioRad protein assay, protein samples were added to Laemmli buffer and then boiled for 10 min. Samples were then resolved by SDS-10% PAGE in Tris/glycine/SDS buffer (25 mM Tris, 250 mM glycine, 0.1% SDS), and transferred onto Immobilon P transfer membranes (Millipore, Bedford, Mass.) (100 V, 1.5 h, 4° C.). Membranes were blocked for 1 h in TBS-T (20 mM Tris-HCl, 150 mM NaCl, 0.1% Tween 20) containing 5% nonfat milk, then probed for overnight at 4° C. with the respective antibodies (Abs) (dilution 1:1000 in TBS-T with 2% BSA). After washing in TBS-T, membranes were incubated with secondary HRP-conjugated, donkey anti-rabbit IgG (1:10,000 dilution in TBS-T with 5% nonfat milk) for 1 h at room temperature. Membranes washed five times in TBS-T before development with ECL reagents (GE Healthcare) according to manufacturer's directions.
HEK293T cells were transfected with indicated plasmids using Superfect Transfection Reagent (Qiagen). Twenty-four hours posttransfection, the cells were lysed using the buffer containing 20 mM HEPES (pH 7.4), 150 mM NaCl, 10 mM NaF, 2 mM Na3VO4, 1 mM EDTA, 1 mM EGTA, 0.5% Triton X-100, 0.1 M DTT, 1 mM PMSF, and protease inhibitor mixture (Roche, Indianapolis, Ind.). Rabbit Ab against phospho-ERK, phospho-JNK, MyD88 (D80F5), STAT1-Y701, total STAT1, and GAPDH were purchased from Cell Signaling Technology (Beverly, Mass.). Rabbit anti-phospho-p38 Ab was purchased from Promega (Madison, Wis.). Goat anti-TLR4 (M−16), rabbit anti-TLR4 (H-80), anti-HA-HRP (F-7), and rabbit anti-b-actin Ab were purchased from Santa Cruz Biotechnology. Mouse anti-Flag M2 and rabbit anti-HA Ab were from Sigma-Aldrich. GFP Ab (A1122) was from Invitrogen. Protein was quantified using Bio-Rad protein quantification kit. Equal amount of protein was loaded and analyzed by 10% SDS-PAGE and immunoblotting. The cell extracts containing equal amount of protein were incubated with 1 μg Ab for 2 h, followed by 4-h incubation with 25 μl protein G agarose beads (Roche); the beads were then washed four times with lysis buffer, boiled in […] sample loading buffer, and analyzed by immunoblotting.
We next examined whether TRAM peptides inhibit the TLR4-mediated p38, ERK, and JNK MAPK activation. Murine macrophages pretreated with peptides for 30 min were challenged with LPS. Cell lysates were collected 30 min post-stimulation and analyzed for MAPK phosphorylation by Western analysis. Consistent with peptide effects on steady-state mRNA, both TM4 and TM6 inhibited activation of all three MAPKs (FIG. 5C). The inhibition of MAPKs by TM4 or TM6 was long lasting; it persisted for at least 1 h after LPS stimulation (data not shown). To characterize further the effects of TRAM peptides on MAPKs, murine macrophages were treated with TRAM peptides, but not challenged by LPS.

CC[C@H](C)[C@H](NC(=O)[C@H](CCCCN)NC(=O)[C@@H](NC(=O)[C@H](CCC(N)=O)NC(=O)[C@@H](N)CCCNC(=N)N)[C@@H](C)CC)C(=O)N[C@@H](Cc1c[nH]c2ccccc12)C(=O)N[C@@H](Cc1ccccc1)C(=O)N[C@@H](CCC(N)=O)C(=O)N[C@@H](CC(N)=O)C(=O)N[C@@H](CCCNC(=N)N)C(=O)N[C@@H](CCCNC(=N)N)C(=O)N[C@@H](CCSC)C(=O)N[C@@H](CCCCN)C(=O)N[C@@H](Cc1c[nH]c2ccccc12)C(=O)N[C@@H](CCCCN)C(=O)N[C@@H](CCCCN)C(=O)N[C@@H](CCCNC(=N)N)C(=O)N[C@@H](CCCCN)C(=O)N1CCC[C@H]1C(=O)N[C@@H](CCCCN)C(=O)N[C@@H](CCCCN)C(=O)N[C@@H](C)C(=O)N1CCC[C@H]1C(=O)N[C@@H](CS)C(=O)N[C@@H](CCCNC(=N)N)C(=O)N[C@@H](CC(=O)O)C(=O)N[C@H](C(=O)N[C@@H](CS)C(=O)N[C@@H](Cc1ccc(O)cc1)C(=O)N[C@@H](CC(=O)O)C(=O)O)C(C)C [Peptide 2R1] (H-RQIKIWFQNRRMKWKKRKPKKAPCRDVCYD-OH; N-terminus and C-terminus assumed)
Effective conc. [1]: 40 µM
Cytokine mRNA expression induced by P3C [2]: inhibit
Cytokine mRNA expression induced by P2C [3]: inhibit

RQIKIWFQNRRMKWKKAGCKKYSRGESIYD [Peptide 4R1]
Effective conc. [4]: 20 µM
LPS-induced cytokine mRNA induction [5]: potently inhibit
LPS-induced activation of ERK and JNK MAPKs [6]: potently inhibit

RQIKIWFQNRRMKWKKEEGVPRFHLC [Peptide 4R3]
Effective conc. [4]: 20 µM
LPS-induced cytokine mRNA induction [5]: potently inhibit
LPS-induced activation of ERK and JNK MAPKs [6]: potently inhibit

RQIKIWFQNRRMKWKKENSDPPFKLC [Peptide 2R3]
Effective conc. [1]: 40 µM
Cytokine mRNA expression induced by P3C [2]: inhibit

RQIKIWFQNRRMKWKKEPIERKAIPQRFCK [Peptide 2DD-αD]
IL-1β expression induced by TLR2 agonists [1]: potently inhibits
Effective conc. [1]: 40 µM

RQIKIWFQNRRMKWKKEQTDYRLKLC [Peptide M3]
Effective conc. [4]: 20 µM
LPS-induced TNF-α and IL-1β mRNA expression [5]: inhibit
LPS-induced activation of p38 and ERK MAPKs [6]: inhibit

RQIKIWFQNRRMKWKKHIFWRRLKNALLD [4R11/4αE]
Effective conc. [4]: 20 µM
LPS-induced cytokine mRNA induction [5]: potently inhibit
LPS-induced activation of ERK and JNK MAPKs [6]: potently inhibit

RQIKIWFQNRRMKWKKIASELIEKRCRRM [Peptide M5]
Effective conc. [4]: 20 µM
LPS-induced TNF-α and IL-1β mRNA expression [5]: inhibit
LPS-induced activation of p38 and ERK MAPKs [6]: inhibit

RQIKIWFQNRRMKWKKLHKRDFVPGKWIID [Peptide 2BB]
IL-1β expression induced by TLR2 agonists [1]: inhibits
Effective conc. [1]: 40 µM

RQIKIWFQNRRMKWKKLRQQVELYRLLSR [Peptide 4R9]
Effective conc. [4]: 20 µM
LPS-induced cytokine mRNA induction [5]: potently inhibit
LPS-induced activation of ERK and JNK MAPKs [6]: potently inhibit

RQIKIWFQNRRMKWKKPQRFCKLRKIMNT [Peptide 2R9]
TLR2-induced ERK activation ([1]; FIG. 16C): strongly inhibits
Effective conc. [1]: 40 µM
Cytokine mRNA expression induced by P3C [2]: inhibit
Cytokine mRNA expression induced by P2C [3]: inhibit

RQIKIWFQNRRMKWKKSDRDVLPGTCVWS [Peptide M4]
Effective conc. [4]: 20 µM
LPS-induced TNF-α and IL-1β mRNA expression [5]: inhibit
LPS-induced activation of p38 and ERK MAPKs [6]: inhibit
